Assay results published in ChEMBL document CHEMBL4680162, “Synthesis and pharmacological evaluation of chlorin derivatives for photodynamic therapy of cholangiocarcinoma” (Eur J Med Chem, 2020).
Calls of active or inactive are those of the source. The rule behind the calls is not given here.

Legend:
[1] = Phototoxicity in ICR mouse assessed as pathological changes 1 mg/kg, iv in presence of 10 mW/cm2 light irradiation for 10 mins at 1 day after drug challenge and measured after 1 day of light irradiation by H and E staining based microscopic analysis; format: organism-based; conditions: in vivo, 48 h, time 2 day
[2] = Phototoxicity in ICR mouse assessed as back skin weight at 1 mg/kg, iv followed by 10 mW/cm2 light irradiation for 10 mins at 1 day after drug challenge and measured after 1 day of light irradiation by H and E staining based microscopic analysis (reference value: 34.3 +/- 2.1 mg); format: organism-based; conditions: in vivo, 48 h, time 2 day
[3] = Absorption property of compound in poly-oxyethylene castor oil and PBS assessed as Q band maximum absorption wavelength by UV-visible spectrophotometric method; format: physicochemical; conditions: buffer
[4] = Induction of apoptosis in human QBC939 cells assessed as late apoptotic cells at 2 uM in presence of 2J/cm2 light irradiation measured after 2 hrs by annexin V-FITC and propidium iodide staining based flow cytometric analysis (reference value: 0.01 %); format: functional
[5] = Phototoxicity against human QBC939 cells assessed as reduction in cell viability irradiated with 2 J/cm2 of 650 nanometer laser light preincubated for 24 hrs in dark and measured after 24 hrs by MTT assay; format: functional, cell-based; conditions: QBC939, light or radiation study
[6] = Absorption property of the compound in DMF assessed as Q band maximum absorption wavelength by UV-visible spectrophotometric method; format: physicochemical
[7] = Absorption property of the compound in DMSO assessed as Q band maximum absorption wavelength by UV-visible spectrophotometric method; format: physicochemical
[8] = Induction of singlet oxygen generation in DMSO assessed as bleaching rate at 10 uM under 650 nanometer light irradiation; format: functional
[9] = Phototoxicity in ICR mouse assessed as tail weight at 1 mg/kg, iv followed by 10 mW/cm2 light irradiation for 10 mins at 1 day after drug challenge and measured after 1 day of light irradiation by H and E staining based microscopic analysis (reference value: 115.6 +/- 5.6 mg); format: organism-based; conditions: in vivo, 48 h, time 2 day
[10] = Drug uptake in nude mouse xenografted with QBC939 cells assessed as drug level in tumor tissue at 1 mg/kg, iv measured after 8 hrs by fluorescence imaging assay; format: ADME, organism-based, Neoplasm; conditions: in vivo
[11] = Induction of apoptosis in human QBC939 cells assessed as necrotic cells at 2 uM in presence of 2J/cm2 light irradiation measured after 24 hrs by annexin V-FITC and propidium iodide staining based flow cytometric analysis (reference value: 0.02 %); format: functional
[12] = Absorption property of the compound in DMSO assessed as Q band log absorption coefficient by UV-visible spectrophotometric method; format: physicochemical
[13] = Induction of apoptosis in human QBC939 cells assessed as early apoptotic cells at 2 uM in presence of 2J/cm2 light irradiation measured after 2 hrs by annexin V-FITC and propidium iodide staining based flow cytometric analysis (reference value: 0.01 %); format: functional
[14] = Induction of apoptosis in human QBC939 cells assessed as necrotic cells at 2 uM in presence of 2J/cm2 light irradiation measured after 2 hrs by annexin V-FITC and propidium iodide staining based flow cytometric analysis (reference value: 0.02 %); format: functional
QBC939 [15] = assay: Photodynamic antitumour activity against human QBC939 cells xenografted in BABL/c nude mouse assessed as increase in apoptotic cells at 1 mg/kg, iv measured after 1 day of light irradiation by TUNEL assay; format: functional, organism-based
[16] = Dark toxicity in human QBC939 cells assessed as reduction in cell viability incubated under dark for 24 hrs measured after 24 hrs by MTT assay; format: cell-based; conditions: read-out: TC50
[17] = Absorption property of the compound in DMF assessed as Q band log absorption coefficient by UV-visible spectrophotometric method; format: physicochemical
[18] = Phototoxicity in ICR mouse assessed as ear weight at 1 mg/kg, iv followed by 10 mW/cm2 light irradiation for 10 mins at 1 day after drug challenge and measured after 1 day of light irradiation by H and E staining based microscopic analysis (reference value: 12.4 +/- 1.5 mg); format: organism-based; conditions: in vivo, 48 h, time 2 day
[19] = Induction of apoptosis in human QBC939 cells assessed as necrotic cells at 2 uM by annexin V-FITC and propidium iodide staining based flow cytometric analysis; format: functional
[20] = Drug uptake in mouse assessed as drug level in plasma at 1 mg/kg, iv measured upto 24 hrs by fluorometric method; format: ADME, organism-based; conditions: in vivo
[21] = Drug uptake in human QBC939 cells at 4 uM by fluorescence spectrophotometer analysis; format: ADME, cell-based; conditions: qbc939, 4 µM
[22] = Absorption property of compound in poly-oxyethylene castor oil and PBS assessed as Q band log absorption coefficient by UV-visible spectrophotometric method; format: physicochemical; conditions: buffer
[23] = Drug localization in lysosome of human QBC939 cells at 4 uM incubated for 4 hrs in dark by lyso-tracker blue based confocal microscopic method; format: ADME, subcellular; conditions: qbc939, 4 h
[24] = Drug localization in mitochondria of human QBC939 cells at 4 uM incubated for 4 hrs in dark by mito-tracker green based confocal microscopic method; format: ADME; conditions: qbc939, 4 h
[25] = Phototoxicity in ICR mouse assessed as neck skin weight at 1 mg/kg, iv followed by 10 mW/cm2 light irradiation for 10 mins at 1 day after drug challenge and measured after 1 day of light irradiation by H and E staining based microscopic analysis (reference value: 36.5 +/- 2.4 mg); format: organism-based; conditions: in vivo, 48 h, time 2 day
[26] = Induction of apoptosis in human QBC939 cells assessed as viable cells at 2 uM in presence of 2J/cm2 light irradiation measured after 24 hrs by annexin V-FITC and propidium iodide staining based flow cytometric analysis (reference value: 99.6 %); format: functional; conditions: QBC939, light or radiation study, read-out: Activity
[27] = Induction of apoptosis in human QBC939 cells assessed as late apoptotic cells at 2 uM by annexin V-FITC and propidium iodide staining based flow cytometric analysis; format: functional
[28] = Emission property of compound in DMF assessed as Q band emission wavelength by […]; format: physicochemical
[29] = Induction of apoptosis in human QBC939 cells assessed as early apoptotic cells at 2 uM by annexin V-FITC and propidium iodide staining based flow cytometric analysis (reference value: 0.01 %); format: functional
[30] = Drug localization in nucleus of human QBC939 cells at 4 uM incubated for 4 hrs in dark by Hoechst 33342 based confocal microscopic method; format: ADME, subcellular; conditions: qbc939, 4 h
[31] = Induction of apoptosis in human QBC939 cells assessed as viable cells at 2 uM by annexin V-FITC and propidium iodide staining based flow cytometric analysis (reference value: 99.99 %); format: functional; conditions: read-out: Activity
[32] = Induction of singlet oxygen generation in DMF solution irradiated with 650 nanometer laser light in every 1 min by ESR assay; format: functional
[33] = Phototoxicity against human QBC939 cells assessed as reduction in cell viability irradiated with 1 J/cm2 of 650 nanometer laser light preincubated for 24 hrs in dark and measured after 24 hrs by MTT assay; format: functional, cell-based; conditions: QBC939, light or radiation study
[34] = Induction of apoptosis in human QBC939 cells assessed as early apoptotic cells at 2 uM in presence of 2J/cm2 light irradiation measured after 24 hrs by annexin V-FITC and propidium iodide staining based flow cytometric analysis (reference value: 0.01 %); format: functional
[35] = Photodynamic antitumor activity against human QBC939 cells xenografted in BALB/c nude mouse assessed as tumor weight at 1 mg/kg, iv followed by laser light irradiation at 120 J/cm2 measured after 13 days; format: functional; conditions: time 13 day
[36] = Drug uptake in nude mouse xenografted with QBC939 cells assessed as drug level in tumor tissue at 1 mg/kg, iv measured after 24 hrs by fluorescence imaging assay; format: ADME, organism-based, Neoplasm; conditions: in vivo
[37] = Emission property of compound in DMSO assessed as Q band emission wavelength by […]; format: physicochemical
[38] = Induction of apoptosis in human QBC939 cells assessed as viable cells at 2 uM in presence of 2J/cm2 light irradiation measured after 2 hrs by annexin V-FITC and propidium iodide staining based flow cytometric analysis (reference value: 99.6 %); format: functional; conditions: QBC939, light or radiation study, read-out: Activity
[39] = Induction of apoptosis in human QBC939 cells assessed as late apoptotic cells at 2 uM in presence of 2J/cm2 light irradiation measured after 24 hrs by annexin V-FITC and propidium iodide staining based flow cytometric analysis (reference value: 0.01 %); format: functional
[40] = Phototoxicity against human QBC939 cells assessed as reduction in cell viability irradiated with 4 J/cm2 of 650 nanometer laser light preincubated for 24 hrs in dark and measured after 24 hrs by MTT assay; format: functional, cell-based; conditions: QBC939, light or radiation study
[41] = Emission property of compound in poly-oxyethylene castor oil and PBS assessed as Q band emission wavelength by […]; format: physicochemical; conditions: buffer
QBC939 [42] = assay: Photodynamic antitumor activity against human QBC939 cells xenografted in BALB/c nude mouse assessed as decrease in tumor weight at 1 mg/kg, iv under dark condition measured after 13 days; format: functional, organism-based; conditions: time 13.0 day
[43] = Phototoxicity in ICR mouse assessed as dermal inflammation 1 mg/kg, iv in presence of 10 mW/cm2 light irradiation for 10 mins at 1 day after drug challenge and measured after 1 day of light irradiation by H and E staining based microscopic analysis; format: organism-based; conditions: in vivo, 48 h, time 2 day
[44] = Phototoxicity in ICR mouse assessed as skin erythema at 1 mg/kg, iv followed by 10 mW/cm2 light irradiation for 10 mins at 1 day after drug challenge and measured after 1 day of light irradiation by H and E staining based microscopic analysis; format: organism-based; conditions: in vivo, 48 h, time 2 day
[45] = Phototoxicity in ICR mouse assessed as skin swelling at 1 mg/kg, iv followed by 10 mW/cm2 light irradiation for 10 mins at 1 day after drug challenge and measured after 1 day of light irradiation by H and E staining based microscopic analysis; format: organism-based; conditions: in vivo, 48 h, time 2 day
[46] = Phototoxicity in ICR mouse assessed as ear swelling at 1 mg/kg, iv followed by 10 mW/cm2 light irradiation for 10 mins at 1 day after drug challenge and measured after 1 day of light irradiation by H and E staining based microscopic analysis; format: organism-based; conditions: in vivo, 48 h, time 2 day

For COC(=O)C1(C(=O)NCCO)C2c3nc(c(-c4ccccc4)c4ccc([nH]4)c(-c4ccccc4)c4nc(c(-c5ccccc5)c5ccc([nH]5)c3-c3ccccc3)C=C4)C21 (configuration not stated), the Activity [1] was “Non-Toxic”, the Activity [2] was 35.3 mg and the Activity [3] was 650 nm. For the same compound, the Activity [4] was 4.9%, the IC50 [5] was 1.92 µM and the Activity [6] was 652 nm. The Activity [7] was 654 nm, the Activity [8] was “Active” and the Activity [9] was 114.9 mg. For the same compound, the Drug uptake [10] was “Active”, the Activity [11] was 9.7% and the Activity [12] was 4. The Activity [13] was 2.1%, the Activity [14] was 17.07% and the Activity (QBC939 [15]) was “Active”. The CC50 at 48 h [16] was greater than 8 µM, the Activity [17] was 4.03 and the Activity [18] was 13.2 mg. The Activity [19] was 0.96%, the Drug uptake [20] was “Active” and the Drug uptake [21] was “Active”. For the same compound, the Activity [22] was 3.34, the Drug uptake [23] was “Active” and the Drug uptake [24] was “Active”. It also gave an Activity [25] of 38.1 mg, a viability at 2 µM [26] of 25.6% and an Activity [27] of 2.32%. The Activity [28] was 652 nm, the Activity [29] was 1.65% and the Drug uptake [30] was “Not Active”. The viability at 2 µM [31] was 95.1%, the Activity [32] was “Active” and the IC50 [33] was 3.41 µM. For the same compound, the Activity [34] was 19.8%, the Activity [35] was 17% and the Drug uptake [36] was “Active”. The Activity [37] was 650 nm, the viability at 2 µM [38] was 75.9% and the Activity [39] was 44.9%. The IC50 [40] was 1.17 µM, the Activity [41] was 655 nm and the Activity (QBC939 [42]) was “inactive”.
For Oc1cccc(-c2c3nc(c(-c4cccc(O)c4)c4ccc([nH]4)c(-c4cccc(O)c4)c4nc(c(-c5cccc(O)c5)c5ccc2[nH]5)CC4)C=C3)c1 [TEMOPORFIN], the Activity [43] was “Toxic”, the Activity [2] was 39.2 mg and the Activity [44] was “Toxic”. The Activity [45] was “Toxic”, the IC50 [5] was 1.46 µM and the Activity [46] was “Toxic”. For the same compound, the Activity [9] was 120.4 mg, the Activity (QBC939 [15]) was “Active” and the CC50 at 48 h [16] was 6.08 µM. It also gave an Activity [18] of 15.6 mg, an Activity [25] of 42.7 mg and an IC50 [33] of 2.96 µM. For the same compound, the Activity [35] was 35%, the IC50 [40] was 0.63 µM and the Activity (QBC939 [42]) was “inactive”.
